Test results published in paper PMC2593902, “Regulation of cyclic AMP response-element binding-protein (CREB) by Gq/11-protein-coupled receptors in human SH-SY5Y neuroblastoma cells” (Biochemical Pharmacology, 2008).

Biological target: T1, M3 muscarinic acetylcholine (mACh) receptor (Homo sapiens, UniProt P20309)
T1 construct: gene CHRM3
Test: Fura-2 Ca2+ mobilization in SH-SY5Y cells endogenously expressing the receptor (also Ins([…])P3 and phospho-CREB)
Assay type: cell-based

T1 sequence (P20309 whole entry): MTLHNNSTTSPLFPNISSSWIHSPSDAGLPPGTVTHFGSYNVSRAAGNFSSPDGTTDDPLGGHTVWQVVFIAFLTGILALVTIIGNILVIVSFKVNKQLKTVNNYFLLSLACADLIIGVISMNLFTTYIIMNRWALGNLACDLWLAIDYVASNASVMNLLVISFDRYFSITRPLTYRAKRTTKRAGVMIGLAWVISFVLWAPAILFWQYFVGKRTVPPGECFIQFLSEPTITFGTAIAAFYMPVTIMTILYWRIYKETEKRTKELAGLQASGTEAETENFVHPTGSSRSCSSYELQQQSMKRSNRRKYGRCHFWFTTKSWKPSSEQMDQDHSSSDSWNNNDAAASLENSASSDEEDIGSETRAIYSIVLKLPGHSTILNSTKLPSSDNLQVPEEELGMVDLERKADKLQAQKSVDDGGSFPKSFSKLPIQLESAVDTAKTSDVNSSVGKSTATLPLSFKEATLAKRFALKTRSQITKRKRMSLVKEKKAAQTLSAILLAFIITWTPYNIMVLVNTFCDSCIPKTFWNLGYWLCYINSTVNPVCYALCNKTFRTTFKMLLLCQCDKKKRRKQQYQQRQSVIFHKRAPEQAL

CC(=O)OC(C)C[N+](C)(C)C (stereo not shown) [MCh, methacholine]
EC50: 800 nM
